These results are taken from PubChem BioAssay (NCI).

Some test systems named below: M14 melanoma; OVCAR-3 ovarian; SF-539 CNS; K-562 leukemia; SK-OV-3 ovarian; ACHN renal; SNB-75 CNS; LOX IMVI melanoma; UACC-257 melanoma.
Assay in all cases: NCI-60 cell line screen, 48 h

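Dose response: 5 concentrations. Exposure: 48 h. Format: 96-well plates. Endpoint: linear interpolation; highest concentration if not reached. TGI: concentration producing complete growth inhibition.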

As to `CC(C)(C)OC(=O)N(CCCN)CCCCN(CCCN)C(=O)OC(C)(C)C`, the TGI in the experiment with M14 melanoma, with OVCAR-3 ovarian, with SF-539 CNS, in the experiment on K-562 leukemia, with SK-OV-3 ovarian and in the experiment with ACHN renal was more than 100 µM each time. In addition, the TGI in the experiment with SNB-75 CNS, in the experiment on LOX IMVI melanoma and with UACC-257 melanoma was more than 100 µM throughout.

As to `COc1cc(C2c3cc4c(c(O)c3C(=O)C3CCC(=O)N32)OCO4)cc(OC)c1OC` (stereo not drawn), the TGI in the experiment on M14 melanoma, in the experiment with OVCAR-3 ovarian, in the experiment with SF-539 CNS, in the experiment with K-562 leukemia, in the experiment on SK-OV-3 ovarian and in the experiment with ACHN renal was more than 100 µM each time. In addition, the TGI with SNB-75 CNS, in the experiment on LOX IMVI melanoma and in the experiment with UACC-257 melanoma was more than 100 µM in each case.

As for `O=S(=O)(N1CCCCN(S(=O)(=O)C(F)(F)F)CCCN(S(=O)(=O)C(F)(F)F)CCCN(S(=O)(=O)C(F)(F)F)CCCCN(S(=O)(=O)C(F)(F)F)CCCN(S(=O)(=O)C(F)(F)F)CCC1)C(F)(F)F`, the TGI with M14 melanoma was more than 100 µM; in the experiment with OVCAR-3 ovarian, more than 100 µM; in the experiment on SF-539 CNS, 84.1 µM; in the experiment on K-562 leukemia, more than 100 µM; in the experiment with SK-OV-3 ovarian, more than 100 µM; in the experiment on ACHN renal, more than 100 µM. For the same molecule, the TGI in the experiment with SNB-75 CNS was 92.8 µM; in the experiment with LOX IMVI melanoma, more than 100 µM; in the experiment on UACC-257 melanoma it was more than 100 µM.

Consider `COc1cc(OC)cc(N(C)Cc2cnc3nc(N)nc(N)c3c2C)c1`, for which the TGI in the experiment with M14 melanoma was 55.4 µM; in the experiment on OVCAR-3 ovarian it was more than 31.6 µM; with SF-539 CNS, 4.96 µM; in the experiment with K-562 leukemia it was more than 100 µM; with SK-OV-3 ovarian, more than 100 µM; in the experiment with ACHN renal it was more than 100 µM. Moreover, the TGI with SNB-75 CNS, in the experiment with LOX IMVI melanoma and in the experiment on UACC-257 melanoma was more than 100 µM each time.

For the molecule `C[C@H]1C(=O)C2=C[C@H]1CCC(=O)[C@]1(C)CCCC(C)(C)[C@H]1C[C@H]2O`, the TGI in the experiment with M14 melanoma is 25.9 µM; in the experiment on OVCAR-3 ovarian, 84.9 µM; in the experiment on SF-539 CNS, 28.8 µM; with K-562 leukemia, 33.4 µM; with SK-OV-3 ovarian, more than 100 µM; with ACHN renal it was 31.6 µM. For the same molecule, the TGI with SNB-75 CNS stood at 82.8 µM; in the experiment with LOX IMVI melanoma it was 35.4 µM; in the experiment on UACC-257 melanoma, 83.6 µM.

As to `COc1ccc(N=Nc2ccc3oc(=O)c(C(=O)Nc4ccc(OC)cc4)cc3c2)cc1`, the TGI with M14 melanoma was 43.5 µM; with OVCAR-3 ovarian it was 46.6 µM; in the experiment with SF-539 CNS it was 22.8 µM; with K-562 leukemia it was more than 100 µM; with SK-OV-3 ovarian, 83.5 µM; with ACHN renal, 56.5 µM. The TGI in the experiment on SNB-75 CNS was found to be 54.3 µM; in the experiment with LOX IMVI melanoma, 18.1 µM; with UACC-257 melanoma it was 73.9 µM.

In the case of `O=C1NC(N2CCCC(CO)C2)=N/C1=C\c1ccc(O)cc1` (stereo not drawn), the TGI in the experiment on M14 melanoma, with OVCAR-3 ovarian, in the experiment with SF-539 CNS, in the experiment on K-562 leukemia, in the experiment with SK-OV-3 ovarian and in the experiment on ACHN renal was more than 100 µM each time. For the same molecule, the TGI in the experiment on SNB-75 CNS, in the experiment on LOX IMVI melanoma and in the experiment with UACC-257 melanoma was more than 100 µM each time.

With `CCC1(CC)C(=O)N(C(=O)c2ccc(Cl)cc2)N(C(=O)c2ccccc2Cl)C1=O`, the TGI in the experiment on M14 melanoma, in the experiment with OVCAR-3 ovarian, in the experiment on K-562 leukemia, with SK-OV-3 ovarian, in the experiment with ACHN renal and with SNB-75 CNS was more than 100 µM each time. Moreover, the TGI was 50.3 µM with LOX IMVI melanoma and more than 100 µM in the experiment on UACC-257 melanoma.

Consider `CC1(C)CC(=O)C2=C(C1)OC1=C(CC(C)(C)CC1=O)C2c1ccccc1Cl` (stereo not drawn), for which the TGI in the experiment on M14 melanoma, in the experiment on OVCAR-3 ovarian, in the experiment on SF-539 CNS, in the experiment with K-562 leukemia, in the experiment on SK-OV-3 ovarian and with ACHN renal was more than 100 µM each time. Also, the TGI with SNB-75 CNS, in the experiment on LOX IMVI melanoma and with UACC-257 melanoma was more than 100 µM in each case.

For `Cc1ccc(-c2cn3c(nc4ccccc43)c(C)n2)cc1`, the TGI was more than 100 µM in the experiment with M14 melanoma; more than 100 µM with OVCAR-3 ovarian; more than 100 µM in the experiment on SF-539 CNS; more than 100 µM in the experiment on K-562 leukemia; 41.5 µM in the experiment on SK-OV-3 ovarian; more than 100 µM in the experiment with ACHN renal. The TGI in the experiment with SNB-75 CNS is more than 87.6 µM; in the experiment with LOX IMVI melanoma it was more than 100 µM; in the experiment on UACC-257 melanoma it was more than 100 µM.

`CCC1OC(=O)C(C)C(OC2CC(C)(O)C(O)C(C)O2)C(C)C(O)C(C)(O)CC(C)C(=O)C(C)C(O)C1C` (stereo not drawn): the TGI in the experiment with OVCAR-3 ovarian, in the experiment with SF-539 CNS, in the experiment with K-562 leukemia, in the experiment on SK-OV-3 ovarian, with SNB-75 CNS and in the experiment on LOX IMVI melanoma was more than 300 µM in each case. Moreover, the TGI in the experiment with UACC-257 melanoma is more than 300 µM.

As to `COC(=O)c1ccc2[nH]c3c(c2c1)CC(=O)Nc1ccccc1-3`, the TGI with M14 melanoma was more than 100 µM; in the experiment on OVCAR-3 ovarian, more than 100 µM; with SF-539 CNS, 5.52 µM; in the experiment on K-562 leukemia it was 97.7 µM; in the experiment with SK-OV-3 ovarian, more than 100 µM; in the experiment with ACHN renal it was more than 100 µM. The TGI in the experiment on SNB-75 CNS was 6.11 µM; with LOX IMVI melanoma, more than 100 µM; in the experiment with UACC-257 melanoma it was more than 100 µM.

For the molecule `O=C1c2c(ccc3c2CCCC3)CC12Cc1ccccc1C2`, the TGI in the experiment with M14 melanoma was more than 100 µM; in the experiment with OVCAR-3 ovarian, 48.9 µM; in the experiment on SF-539 CNS, more than 75.3 µM; with K-562 leukemia, more than 48.2 µM; with SK-OV-3 ovarian, more than 100 µM; in the experiment with ACHN renal it was 97.1 µM. Also, the TGI is more than 100 µM in the experiment on SNB-75 CNS, 29.4 µM in the experiment on LOX IMVI melanoma and 54 µM in the experiment with UACC-257 melanoma.

In the case of `CC(C)Oc1c(O)c2c3c(oc(=O)n3C=CC2c2ccccc2F)c1OC(C)C` (stereo not drawn), the TGI is 65.4 µM in the experiment with M14 melanoma; more than 100 µM in the experiment with OVCAR-3 ovarian; 52.6 µM in the experiment on SF-539 CNS; more than 100 µM with K-562 leukemia; more than 100 µM in the experiment with SK-OV-3 ovarian; more than 100 µM in the experiment on ACHN renal. For the same molecule, the TGI in the experiment on SNB-75 CNS was more than 100 µM; with LOX IMVI melanoma, 33.1 µM; in the experiment on UACC-257 melanoma, more than 100 µM.
